IC50 data for eight compounds are collected here from ChEMBL document CHEMBL1130230, “1,4-disubstituted anthracene antitumor agents” (J Med Chem, 1997).

SMILES strings stand for the structures. pIC50: −log10 of the molar value.

The term pIC50 denotes −log10 of the IC50, conventionally taken in molar units. A lower pIC50 goes with a high IC50.

What all share (assay type): functional, cell-based
Test [1] deals with SW480. Put plainly: Compound was tested for potency against human colon carcinoma SW 480 cells in a sulforhodamine B assay.
Test [2] deals with RPMI-8226. The test is described as follows: Compound was tested for potency against human myeloma 8226 cells using MTT assay method.
In test [3] the test system is RPMI-8226. Put plainly: Compound was tested for potency against human myeloma 8226 cells (40 fold resistant to doxorubicin).
Test [4] concerns WiDr. Put plainly: Compound was tested for potency against human colon carcinoma WiDr cells in a sulforhodamine B assay. For orientation: Sulforhodamine B stains cellular protein and so reports cell mass.
Test [5] concerns L1210. The test is described as follows: Compound was tested for potency against multi drug resistant murine leukemia L1210 cells. The settings on record: Mus musculus.
In test [6] the test system is L1210. The test is described as follows: Compound was tested for potency against multidrug-resistant murine leukemia L1210 cells. The settings on record: Mus musculus.
Test [7] has as its system A549. The test is described as follows: Compound was tested for potency against human lung A549 cells using sulforhodamine B assay.
Test [8] deals with SW480. The test is described as follows: Compound was tested for potency against human colon carcinoma SW 480 cells in a sulforhodamine B assay; UA=Potency was so low that the IC50 was unachievable.
Test [9] has as its system A549. The test is described as follows: Compound was tested for potency against human lung A549 cells using sulforhodamine B assay; UA=Potency was so low that the IC50 was unachievable.

`CN(C)CCNC(=O)c1c2ccccc2c(C(=O)NCCN(C)C)c2ccccc12`: the negative-log IC50 (pIC50) in test [1] is 4.36; in [2] it was less than 5.00; in test [3], less than 5.00; in test [4] it was 4.59; in test [5], 3.85; in test [6], 4.36. Moreover, in [7], the negative-log IC50 (pIC50) was 4.00.
Regarding `CN(C)CCNC(=O)c1ccc(C(=O)NCCN(C)C)c2cc3ccccc3cc12`, the pIC50 in test [1] was 5.49; in [2], 5.48; in test [3], 5.30; in test [4], 5.85; in [5], 4.54; in [6], 5.38. The compound also showed a pIC50 in test [7] of 6.15.
Consider `CN(C)CCNCc1ccc(CNCCN(C)C)c2cc3ccccc3cc12`, for which the negative-log IC50 (pIC50) was 4.72 in test [1]; 5.15 in test [2]; 5.40 in test [3]; 4.77 in test [4]; 5.08 in test [5]; 5.55 in test [6]. This compound also gave a negative-log IC50 (pIC50) in test [7] of 5.09.
`C(=N\NC1=NCCN1)/c1ccc(/C=N/NC2=NCCN2)c2cc3ccccc3cc12`: the pIC50 in test [1] is 6.14; in test [2], 5.25; in test [3], 5.17; in [4], 5.80; in [5], 4.89; in test [6] it was 5.59. The compound also gave a pIC50 in test [7] of 5.30.
For `CN(C)CCNCc1c2ccccc2c(CNCCN(C)C)c2ccccc12`, the pIC50 in [1] was 5.30; in [2], 5.52; in test [3] it was 5.52; in [4], 5.40; in [5], 5.44; in test [6], 5.48. In [7], this compound had a pIC50 of 5.30.
For the compound `CN(C)CCNCc1ccc(CBr)c2cc3ccccc3cc12`, the pIC50 was 4.92 in test [2]; 5.40 in test [3]; 4.82 in test [4]; 3.73 in [5]; 4.28 in test [6]; 4.04 in [7]. In addition, the IC50 result in [8] is “Unachievable”.
In the case of `CN(C)CCNC(=O)c1ccc(C(=O)NCCN(C)C)c2c1C(=O)c1ccccc1C2=O`, the IC50 result in [9] and in test [8] was “Unachievable” each time. Further, the pIC50 in test [2] was less than 5.00; in [3], 5.30; in [4], 5.35; in test [5], 4.14; in test [6] it was 4.20.
As for `C(=N\NC1=NCCN1)/c1c2ccccc2c(/C=N/NC2=NCCN2)c2ccccc12` [BISANTRENE], the negative logarithm of the IC50 (pIC50) in [1] is 7.05; in test [2] it was 7.74; in test [3], 5.04; in test [4], 6.10; in [5], 5.49; in [6], 7.31. Also, the negative logarithm of the IC50 (pIC50) in test [7] is 7.77.
